Laboratory results reported in PubChem BioAssay AID212 (DTP/NCI, 2004).
Values joined by “and” are separate entries in the source; they are usually repeats but may differ in a detail not shown here. Equal values may be shown once. Inconclusive results are not listed.

System: BDF1 mice, colon carcinoma 38 sc, T/C %
Assay: NCI In Vivo Anticancer Drug Screen. Data for tumor model Colon Carcinoma 38 (subcutaneous) in B6D2F1 (BDF1) mice
Method in brief: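 Mice with transplanted tumors are treated with compound or vehicle. Survival or tumor size is then measured in both groups. The ratio of treated to control gives the reported figure.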

[1] = endpoint: median tumor weight (est.), dose: 6.25 mg/kg/injection, schedule: Q07DX002 (ip), vehicle: saline, higher = larger tumour
[2] = endpoint: median tumor weight (est.), dose: 50.0 mg/kg/injection, schedule: Q07DX002 (ip), vehicle: saline, higher = larger tumour
[3] = endpoint: median tumor weight (est.), dose: 200.0 mg/kg/injection, schedule: Q07DX002 (ip), vehicle: saline, higher = larger tumour
[4] = endpoint: median tumor weight (est.), dose: 25.0 mg/kg/injection, schedule: Q07DX002 (ip), vehicle: saline, higher = larger tumour

With `CCN(CC)CCCNc1nccc2c(C)c3[nH]c4ccncc4c3cc12` the T/C (endpoint: median tumor weight (est.), dose: 0.75 mg/kg/injection, schedule: Q07DX002 (ip), vehicle: acid diluted with saline, higher = larger tumour) was 76 % of control, the T/C (endpoint: median tumor weight (est.), dose: 0.75 mg/kg/injection, schedule: Q07DX002 (ip), vehicle: other, higher = larger tumour) was 120 % of control and the T/C (endpoint: median tumor weight (est.), dose: 1.25 mg/kg/injection, schedule: Q07DX002 (ip), vehicle: other, higher = larger tumour) was 106 % of control. For the same compound, the T/C (endpoint: median tumor weight (est.), dose: 1.5 mg/kg/injection, schedule: Q07DX002 (ip), vehicle: acid diluted with saline, higher = larger tumour) was 100 % of control, the T/C (endpoint: median tumor weight (est.), dose: 1.5 mg/kg/injection, schedule: Q07DX002 (ip), vehicle: other, higher = larger tumour) was 108 % of control and the T/C (endpoint: median tumor weight (est.), dose: 3.0 mg/kg/injection, schedule: Q07DX002 (ip), vehicle: acid diluted with saline, higher = larger tumour) was 46 % of control. For the same compound, the T/C (endpoint: median tumor weight (est.), dose: 3.0 mg/kg/injection, schedule: Q07DX002 (ip), vehicle: other, higher = larger tumour) was 123 % of control, the T/C (endpoint: median tumor weight (est.), dose: 6.0 mg/kg/injection, schedule: Q07DX002 (ip), vehicle: acid diluted with saline, higher = larger tumour) was 69 % of control and the T/C (endpoint: median tumor weight (est.), dose: 6.0 mg/kg/injection, schedule: Q07DX002 (ip), vehicle: other, higher = larger tumour) was 66 % of control. The T/C (endpoint: median tumor weight (est.), dose: 12.0 mg/kg/injection, schedule: Q07DX002 (ip), vehicle: acid diluted with saline, higher = larger tumour) was 51 % of control, the T/C (endpoint: median tumor weight (est.), dose: 12.0 mg/kg/injection, schedule: Q07DX002 (ip), vehicle: other, higher = larger tumour) was 26 % of control and the T/C (endpoint: median tumor weight (est.), dose: 20.0 mg/kg/injection, schedule: Q07DX002 (ip), vehicle: other, higher = larger tumour) was 41 % of control.

With `COc1cccc2c1C(=N)c1c(O)c3c(c(O)c1C2=O)C[C@@](O)(C(C)=O)C[C@@H]3OC1CC(N)C(O)C(C)O1` (stereo partly drawn) the T/C (endpoint: median tumor weight (est.), dose: 2.25 mg/kg/injection, schedule: Q07DX002 (ip), vehicle: saline, higher = larger tumour) was 71 % of control, the T/C (endpoint: median tumor weight (est.), dose: 4.5 mg/kg/injection, schedule: Q07DX002 (ip), vehicle: saline, higher = larger tumour) was 115 % of control and the T/C (endpoint: median tumor weight (est.), dose: 9.0 mg/kg/injection, schedule: Q07DX002 (ip), vehicle: saline, higher = larger tumour) was 99 % of control.

In the case of `CC1(C)N=C(N)N=C(N)N1c1ccc(CCCCc2ccc(S(=O)(=O)F)cc2Cl)c(Cl)c1`, the T/C (endpoint: median survival time, dose: 35.0 mg/kg/injection, schedule: Q01DX013 (ip), vehicle: saline with Tween-80, higher = longer survival) is reported as 117 % of control, the T/C (endpoint: median survival time, dose: 92.0 mg/kg/injection, schedule: Q01DX013 (ip), vehicle: saline with Tween-80, higher = longer survival) is reported as 157 % of control and the T/C [1] is reported as 44 % of control. The T/C [2] was 78 % of control and the T/C [3] was 1 % of control and 24 % of control and 26 % of control.

In the case of `COC1/C=C\C=C(/C)C(=O)NC2=CC(=O)C=C(C2=O)C(OC)C(C)CC(OC)C(OC)C(C)/C=C(/C)C1OC(N)=O` (stereo not drawn), the T/C (endpoint: median tumor weight (est.), dose: 1.5 mg/kg/injection, schedule: Q07DX002 (ip), vehicle: Klucel (hydroxypropylcellulose) (HPC), higher = larger tumour) is reported as 159 % of control, the T/C (endpoint: median tumor weight (est.), dose: 6.0 mg/kg/injection, schedule: Q07DX002 (ip), vehicle: Klucel (hydroxypropylcellulose) (HPC), higher = larger tumour) is reported as 117 % of control and the T/C (endpoint: median tumor weight (est.), dose: 12.0 mg/kg/injection, schedule: Q07DX002 (ip), vehicle: Klucel (hydroxypropylcellulose) (HPC), higher = larger tumour) is reported as 115 % of control.

With `O=C(NO)c1cc(O)c(O)c(O)c1` the T/C (endpoint: median tumor weight (est.), dose: 50.0 mg/kg/injection, schedule: Q07DX002 (ip), vehicle: water, higher = larger tumour) was 80 % of control, the T/C (endpoint: median tumor weight (est.), dose: 100.0 mg/kg/injection, schedule: Q07DX002 (ip), vehicle: water, higher = larger tumour) was 70 % of control and the T/C (endpoint: median tumor weight (est.), dose: 200.0 mg/kg/injection, schedule: Q07DX002 (ip), vehicle: water, higher = larger tumour) was 68 % of control. The T/C (endpoint: median tumor weight (est.), dose: 400.0 mg/kg/injection, schedule: Q07DX002 (ip), vehicle: water, higher = larger tumour) was 83 % of control and the T/C (endpoint: median tumor weight (est.), dose: 800.0 mg/kg/injection, schedule: Q07DX002 (ip), vehicle: water, higher = larger tumour) was 40 % of control.

For `C[CH2][Sn]([CH2]C)([O]S(C)(=O)=O)[O]S(C)(=O)=O`, the T/C (endpoint: median tumor weight (est.), dose: 1.56 mg/kg/injection, schedule: Q07DX002 (ip), vehicle: saline, higher = larger tumour) was 18 % of control, the T/C (endpoint: median tumor weight (est.), dose: 3.13 mg/kg/injection, schedule: Q07DX002 (ip), vehicle: saline, higher = larger tumour) was 78 % of control and the T/C [1] was 108 % of control and 117 % of control and 96 % of control. The T/C [4] was 26 % of control.

`COC(OC(CO)C(O)S(=O)(=O)O)C(O)S(=O)(=O)O` (stereo not drawn) was tested, and the T/C (endpoint: median tumor weight (est.), dose: 12.5 mg/kg/injection, schedule: Q07DX002 (ip), vehicle: saline, higher = larger tumour) was 113 % of control, the T/C (endpoint: median tumor weight (est.), dose: 12.5 mg/kg/injection, schedule: Q07DX003 (ip), vehicle: saline, higher = larger tumour) was 123 % of control and the T/C [4] was 108 % of control. The T/C (endpoint: median tumor weight (est.), dose: 25.0 mg/kg/injection, schedule: Q07DX003 (ip), vehicle: saline, higher = larger tumour) was 100 % of control, the T/C [2] was 123 % of control and 105 % of control and the T/C (endpoint: median tumor weight (est.), dose: 50.0 mg/kg/injection, schedule: Q07DX003 (ip), vehicle: saline, higher = larger tumour) was 97 % of control. The T/C (endpoint: median tumor weight (est.), dose: 100.0 mg/kg/injection, schedule: Q07DX002 (ip), vehicle: saline, higher = larger tumour) was 95 % of control and 105 % of control, the T/C (endpoint: median tumor weight (est.), dose: 100.0 mg/kg/injection, schedule: Q07DX003 (ip), vehicle: saline, higher = larger tumour) was 110 % of control and the T/C [3] was 80 % of control and 105 % of control. For the same compound, the T/C (endpoint: median tumor weight (est.), dose: 200.0 mg/kg/injection, schedule: Q07DX003 (ip), vehicle: saline, higher = larger tumour) was 98 % of control, the T/C (endpoint: median tumor weight (est.), dose: 400.0 mg/kg/injection, schedule: Q07DX002 (ip), vehicle: saline, higher = larger tumour) was 85 % of control and 86 % of control and the T/C (endpoint: median tumor weight (est.), dose: 400.0 mg/kg/injection, schedule: Q07DX003 (ip), vehicle: saline, higher = larger tumour) was 50 % of control.

In the case of `COC12C(COC(N)=O)C3=C(C(=O)C(C)=C(N)C3=O)N1CC1C2N1C` (stereo not drawn), the T/C (endpoint: median tumor weight (est.), dose: 2.0 mg/kg/injection, schedule: Q07DX002 (ip), vehicle: saline, higher = larger tumour) is reported as 93 % of control, the T/C (endpoint: median tumor weight (est.), dose: 4.0 mg/kg/injection, schedule: Q07DX002 (ip), vehicle: saline, higher = larger tumour) is reported as 87 % of control and the T/C (endpoint: median tumor weight (est.), dose: 8.0 mg/kg/injection, schedule: Q07DX002 (ip), vehicle: saline, higher = larger tumour) is reported as 100 % of control. For the same compound, the T/C (endpoint: median tumor weight (est.), dose: 16.0 mg/kg/injection, schedule: Q07DX002 (ip), vehicle: saline, higher = larger tumour) was 55 % of control, the T/C (endpoint: median tumor weight (est.), dose: 32.0 mg/kg/injection, schedule: Q07DX002 (ip), vehicle: saline, higher = larger tumour) was 11 % of control and the T/C (endpoint: median tumor weight (est.), dose: 64.0 mg/kg/injection, schedule: Q07DX002 (ip), vehicle: saline, higher = larger tumour) was 12 % of control.

For `CCN(CC)CCOC(=O)/C=C\c1cccc2c(=O)cc(-c3ccccc3)oc12`, the T/C (endpoint: median tumor weight (est.), dose: 100.0 mg/kg/injection, schedule: Q07DX002 (ip), vehicle: Klucel (hydroxypropylcellulose) (HPC), higher = larger tumour) was 102 % of control, the T/C (endpoint: median tumor weight (est.), dose: 200.0 mg/kg/injection, schedule: Q07DX002 (ip), vehicle: Klucel (hydroxypropylcellulose) (HPC), higher = larger tumour) was 65 % of control and the T/C (endpoint: median tumor weight (est.), dose: 400.0 mg/kg/injection, schedule: Q07DX002 (ip), vehicle: Klucel (hydroxypropylcellulose) (HPC), higher = larger tumour) was 52 % of control.
